Reference: patent publication US12240862B2, “Inhibitors of peptidylarginine deiminases” (Gilead Sciences, Inc., priority 2020, dated 2025)

Molecular target: T1, human PAD4 (Homo sapiens, UniProt Q9UM07)
T1 construct: human PAD4 (NM_012387), A2P663, was PCR amplified; His-SUMO (N, cleaved yes); made in house; host or cells: E. coli BL21(DE3)
Assay: In vitro PAD4 BAEE biochemical assay
Conditions: human PAD4, BAEE substrate; 5 nM PAD4, 2 mM calcium chloride, 3 mM BAEE; geometric mean of multiple experiments
Method in brief: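 Ammonia generated from BAEE serves as the readout, measured by o-phthalaldehyde after EDTA termination. Final conditions: 5 nM human PAD4 (SUMO tag cleaved), 2 mM CaCl2, 3 mM BAEE, pH 7.6 MOPS buffer, 25 °C for 2 h following a 30-min compound preincubation.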

T1 sequence (Q9UM07 2-663): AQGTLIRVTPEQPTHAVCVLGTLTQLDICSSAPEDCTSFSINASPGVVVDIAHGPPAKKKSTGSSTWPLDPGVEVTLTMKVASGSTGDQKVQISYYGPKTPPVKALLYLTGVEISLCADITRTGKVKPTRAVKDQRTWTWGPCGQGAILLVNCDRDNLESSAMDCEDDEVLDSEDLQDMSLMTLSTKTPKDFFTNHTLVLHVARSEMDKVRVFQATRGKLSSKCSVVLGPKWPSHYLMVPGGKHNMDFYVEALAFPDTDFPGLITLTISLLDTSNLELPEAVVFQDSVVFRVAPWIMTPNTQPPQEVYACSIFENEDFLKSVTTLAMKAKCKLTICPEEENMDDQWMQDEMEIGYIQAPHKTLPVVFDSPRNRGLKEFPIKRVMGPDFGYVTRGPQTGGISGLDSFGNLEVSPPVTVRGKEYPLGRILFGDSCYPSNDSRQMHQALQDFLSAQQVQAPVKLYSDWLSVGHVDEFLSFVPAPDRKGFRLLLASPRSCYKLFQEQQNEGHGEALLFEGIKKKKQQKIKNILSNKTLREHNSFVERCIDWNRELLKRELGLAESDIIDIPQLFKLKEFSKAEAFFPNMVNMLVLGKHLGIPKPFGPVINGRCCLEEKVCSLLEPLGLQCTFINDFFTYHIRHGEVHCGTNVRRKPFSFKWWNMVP

Row | IC50 [nM] | SMILES
1 | 114 | COc1cc(C(=O)N2[C@H]3CC[C@@H]2[C@H](N)C3)cc2nc(-c3cc4ccc(-c5cccnc5-c5cncs5)nc4n3CC3CC3)c(C)n12 [Example 567, [(1~{R},2~{R},4~{S})-2-amino-7-azabicyclo [2.2.1]heptan-7-yl]-[2-[1-(cyclopropylmethyl)-6-[2-(1,3-thiazol-5-yl)pyridin-3-yl]pyrrolo[2,3-b]pyridin-2-yl]-5-methoxy-3-methylimidazo[1,2-a]pyridin-7-yl]methanone]
2 | 24200 | COc1cc(C(=O)N[C@H]2CNCC[C@H]2C)cc2nc(-c3cc4ccc(N(C(F)F)S(C)(=O)=O)nc4n3CC3CC3)c(C)n12 [Example 313, 2-[1-(cyclopropylmethyl)-6-[difluoromethyl (methylsulfonyl)amino]pyrrolo[2,3-b]pyridin-2-yl]-5-methoxy-3-methyl-~{N}-[(3~{R},4~{R})-4-methylpiperidin-3-yl]imidazo[1,2-a] pyridine-7-carboxamide]
3 | 177 | COc1cc(C(=O)N2[C@H]3CC[C@@H]2[C@H](N)C3)cc2nc(-c3cc4ccc([C@@H](C)NC(=O)c5ccccc5)nc4n3CC34CC(C3)C4)c(C)n12 [Example 489, ~{N}-[(1~{R})-1-[2-[7-[(1~{R},2~{R},4~{S})-2-amino-7-azabicyclo[2.2.1]heptane-7-carbonyl]-5-methoxy-3-methylimidazo[1,2-a]pyridin-2-yl]-1-(1-bicyclo [1.1.1]pentanylmethyl)pyrrolo[2,3-b]pyridin-6-yl]ethyl]benzamide]
4 | 152 | COc1cc(C(=O)N2C[C@H](N)CC[C@@H]2C)cc2nc(-c3cc4ccc(N(C)S(C)(=O)=O)nc4n3CC3CC3)c(C)n12 [Example 481, N-(2-(7-((2S,5R)-5-amino-2-methylpiperidine-1-carbonyl)-5-methoxy-3-methylimidazo[1,2-a]pyridin-2-yl)-1-(cyclopropylmethyl)-1H-pyrrolo[2,3-b]pyridin-6-yl)-N-methylmethanesulfonamide]
5 | 328 | COc1cc(C(=O)N2[C@H]3CC[C@@H]2[C@H](N)C3)cc2nc(-c3cc4ccc([C@@H](C)NC(=O)C5(COC(F)(F)F)CC5)nc4n3CC3CC3)c(C)n12 [Example 138, ~{N}-[(1~{R})-1-[2-[7-[(1~{R},2~{R},4~{S})-2-amino-7-azabicyclo[2.2.1]heptane-7-carbonyl]-5-methoxy-3-methylimidazo [1,2-a]pyridin-2-yl]-1-(cyclopropylmethyl)pyrrolo [2,3-b]pyridin-6-yl]ethyl]-1-(trifluoromethoxymethyl) cyclopropane-1-carboxamide]
6 | 139 | COc1cc(C(=O)N2[C@H]3CC[C@@H]2[C@H](N)C3)cc2nc(-c3cc4ccc([C@@H](C)N(C)C(=O)c5ccccc5)nc4n3CC3CC3)c(C)n12 [Example 185, ~{N}-[(1~{R})-1-[2-[7-[(1~{R},2~{R},4~{S})-2-amino-7-azabicyclo[2.2.1]heptane-7-carbonyl]-5-methoxy-3-methylimidazo [1,2-a]pyridin-2-yl]-1-(cyclopropylmethyl)pyrrolo [2,3-b]pyridin-6-yl]ethyl]-~{N}-methylbenzamide]
7 | 341 | CNc1cc(C(=O)N2CCC[C@@H](N)C2)cc2nc(-c3cc4ccc(N(C(F)F)S(C)(=O)=O)nc4n3CC3CC3)c(C)n12 [Example 421, ~{N}-[2-[7-[(3~{R})-3-aminopiperidine-1-carbonyl]-3-methyl-5-(methylamino)imidazo[1,2-a]pyridin-2-yl]-1-(cyclopropylmethyl)pyrrolo [2,3-b]pyridin-6-yl]-~{N}-(difluoromethyl) methanesulfonamide]
8 | 1000 | COc1cc(C(=O)N2[C@H]3CC[C@@H]2[C@H](N)C3)cc2nc(-c3cc4ccc(C(C)(O)c5ccccc5)nc4n3CC3CC3)c(C)n12 (stereo partly drawn) [Example 573, [(1~{R},2~{R},4~{S})-2-amino-7-azabicyclo [2.2.1]heptan-7-yl]-[2-[1-(cyclopropylmethyl)-6-(1-hydroxy-1-phenylethyl)pyrrolo[2,3-b]pyridin-2-yl]-5-methoxy-3-methylimidazo[1,2-a]pyridin-7-yl]methanone]
9 | 1480 | COc1cc(C(=O)N2CCC[C@@H](N)C2)cc2nc(-c3cc4ccc(CCC(=O)N(C)C)nc4n3CC3CC3)c(C)n12 [Example 532, 3-[2-[7-[(3~{R})-3-aminopiperidine-1-carbonyl]-5-methoxy-3-methylimidazo[1,2-a]pyridin-2-yl]-1-(cyclopropylmethyl)pyrrolo[2,3-b]pyridin-6-yl]-~{N},~{N}-dimethylpropanamide]
10 | 113 | COc1cc(C(=O)N2[C@H]3CC[C@@H]2[C@H](N)C3)cc2nc(-c3cc4ccc(N5CCCN(C)S5(=O)=O)nc4n3CC3CC3)c(C)n12 [Example 455, [(1~{R},2~{R},4~{S})-2-amino-7-azabicyclo [2.2.1]heptan-7-yl]-[2-[1-(cyclopropylmethyl)-6-(6-methyl-1,1-dioxo-1,2,6-thiadiazinan-2-yl)pyrrolo[2,3-b]pyridin-2-yl]-5-methoxy-3-methylimidazo[1,2-a]pyridin-7-yl]methanone]
11 | 1020 | COc1cc(C(=O)N2CCC[C@@H](N)C2)cc2nc(-c3cc4ccc(OCC(N)=O)nc4n3CC3CC3)c(C)n12 [Example 621, 2-[2-[7-[(3~{R})-3-aminopiperidine-1-carbonyl]-5-methoxy-3-methylimidazo[1,2-a]pyridin-2-yl]-1-(cyclopropylmethyl)pyrrolo [2,3-b]pyridin-6-yl]oxyacetamide]
12 | 481 | CCc1ccc2cc(-c3nc4cc(C(=O)N5[C@H]6CC[C@@H]5[C@H](N)C6)cc(OC)n4c3C)n(CCCO)c2n1 [Example 499, [(1~{R},2~{R},4~{S})-2-amino-7-azabicyclo [2.2.1]heptan-7-yl]-[2-[6-ethyl-1-(3-hydroxypropyl)pyrrolo[2,3-b]pyridin-2-yl]-5-methoxy-3-methylimidazo[1,2-a]pyridin-7-yl]methanone]
13 | 59.7 | COc1cc(C(=O)N2[C@H]3CC[C@@H]2[C@H](N)C3)cc2nc(-c3cc4ccc([C@@H](C)NC(=O)C5(C)CC(F)(F)C5)nc4n3CC3CC3)c(C)n12 [Example 84, ~{N}-[(1~{R})-1-[2-[7-[(1~{R},2~{R},4~{S})-2-amino-7-azabicyclo[2.2.1]heptane-7-carbonyl]-5-methoxy-3-methylimidazo [1,2-a]pyridin-2-yl]-1-(cyclopropylmethyl)pyrrolo [2,3-b]pyridin-6-yl]ethyl]-3,3-difluoro-1-methylcyclobutane-1-carboxamide]
14 | 144 | COc1cc(C(=O)N2[C@H]3CC[C@@H]2[C@H](N)C3)cc2nc(-c3cc4ccc([C@@H](C)Nc5ccccn5)nc4n3CC3CC3)c(C)n12 [Example 261, [(1~{R},2~{R},4~{S})-2-amino-7-azabicyclo [2.2.1]heptan-7-yl]-[2-[1-(cyclopropylmethyl)-6-[(1~{R})-1-(pyridin-2-ylamino)ethyl]pyrrolo[2,3-b]pyridin-2-yl]-5-methoxy-3-methylimidazo[1,2-a]pyridin-7-yl]methanone]
15 | 1190 | COc1cc(C(=O)N2CCC[C@@H](N)C2)cc2nc(-c3cc4ccc(OCC(=O)N(C)C)nc4n3CC3CC3)c(C)n12 [Example 620, 2-[2-[7-[(3~{R})-3-aminopiperidine-1-carbonyl]-5-methoxy-3-methylimidazo[1,2-a]pyridin-2-yl]-1-(cyclopropylmethyl)pyrrolo[2,3-b]pyridin-6-yl] oxy-~{N},~{N}-dimethylacetamide]
16 | 813 | COc1cc(C(=O)N[C@H]2CNC[C@@H](C)C2)cc2nc(-c3cc4ccc(N(C(F)F)S(C)(=O)=O)nc4n3CC3CC3)c(C)n12 [Example 317, 2-[1-(cyclopropylmethyl)-6-[difluoromethyl (methylsulfonyl)amino]pyrrolo[2,3-b]pyridin-2-yl]-5-methoxy-3-methyl-~{N}-[(3~{R},5~{S})-5-methylpiperidin-3-yl] imidazo[1,2-a]pyridine-7-carboxamide]
17 | 2700 | COc1cc(C(=O)N2C[C@H]3C[C@H](C)[C@@H]2[C@@H]3N)cc2nc(-c3cc4ccc([C@@H](C)NC(=O)C(C)(C)C)nc4n3CC3CC3)c(C)n12 [Example 167, N-((R)-1-(2-(7-((1R,4R,6S,7R)-7-amino-6-methyl-2-azabicyclo[2.2.1]heptane-2-carbonyl)-5-methoxy-3-methylimidazo [1,2-a]pyridin-2-yl)-1-(cyclopropylmethyl)-1H-pyrrolo [2,3-b]pyridin-6-yl)ethyl) pivalamide]
18 | 78.9 | CNC(=O)CC(C)c1ccc2cc(-c3nc4cc(C(=O)N5[C@H]6CC[C@@H]5[C@H](N)C6)cc(OC)n4c3C)n(CC3CC3)c2n1 (stereo partly drawn) [Example 524, 3-[2-[7-[(1~{R},2~{R}, 4~{S})-2-amino-7-azabicyclo[2.2.1]heptane-7-carbonyl]-5-methoxy-3-methylimidazo[1,2-a]pyridin-2-yl]-1-(cyclopropylmethyl)pyrrolo [2,3-b]pyridin-6-yl]-~{N}-methylbutanamide]
19 | 285 | CCc1c(-c2cc3ccc(N(C(F)F)S(C)(=O)=O)nc3n2CC2CC2)nc2cc(C(=O)N3CCC[C@@H](N)C3)cc(OC)n12 [Example 399, ~{N}-[2-[7-[(3~{R})-3-aminopiperidine-1-carbonyl]-3-ethyl-5-methoxyimidazo[1,2-a]pyridin-2-yl]-1-(cyclopropylmethyl)pyrrolo [2,3-b]pyridin-6-yl]-~{N}-(difluoromethyl) methanesulfonamide]
20 | 418 | COc1cc(C(=O)N2C[C@H](N)CC[C@@H]2C)cc2nc(-c3cc4ccc(N(C(F)F)S(C)(=O)=O)nc4n3CC34CC(C3)C4)c(C)n12 [Example 496, ~{N}-[2-[7-[(2~{S}, 5~{R})-5-amino-2-methylpiperidine-1-carbonyl]-5-methoxy-3-methylimidazo[1,2-a]pyridin-2-yl]-1-(1-bicyclo [1.1.1]pentanylmethyl)pyrrolo [2,3-b]pyridin-6-yl]-~{N}-(difluoromethyl) methanesulfonamide]
21 | 134 | COc1cc(C(=O)N2[C@H]3CC[C@@H]2[C@H](N)C3)cc2nc(-c3cc4ccc(C5CCN(C(C)=O)C5)nc4n3CC3CC3)c(C)n12 (stereo partly drawn) [Example 531]
